# Reference: PubChem BioAssay (NCI)
#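 The compound was tested at five concentrations on cells cultured in 96-well plates, with a 48-hour exposure period. The concentration for 50% growth inhibition is given as GI50. TGI is the concentration that stops growth completely.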
# What was measured:
# Experiment in all cases: inhibition of tumour cell growth, NCI panel, 48 h
# OVCAR-8 ovarian = tested on: OVCAR-8 ovarian
# UO-31 renal = tested on: UO-31 renal
# KM12 colon = tested on: KM12 colon
# CCRF-CEM leukemia = tested on: CCRF-CEM leukemia
# ACHN renal = tested on: ACHN renal
# SK-MEL-2 melanoma = tested on: SK-MEL-2 melanoma
# HOP-62 NSCLC = tested on: HOP-62 NSCLC
# MCF7 breast = tested on: MCF7 breast
# DU-145 prostate = tested on: DU-145 prostate
# MDA-MB-231 breast = tested on: MDA-MB-231 breast
smiles,measurement,setting,value
CC1=C(C)C(=O)c2c(cc3ccccn23)C1=O,TGI,OVCAR-8 ovarian,61.1 µM
same,TGI,UO-31 renal,65.1 µM
same,TGI,KM12 colon,31.3 µM
same,TGI,CCRF-CEM leukemia,> 100 µM
same,TGI,ACHN renal,> 100 µM
O=C(CN1CCOCC1)Nc1nc(-c2ccc(Cl)cc2)cs1,TGI,OVCAR-8 ovarian,72.2 µM
same,TGI,UO-31 renal,67 µM
same,TGI,KM12 colon,48.1 µM
same,TGI,CCRF-CEM leukemia,63.9 µM
same,TGI,SK-MEL-2 melanoma,54.5 µM
same,TGI,HOP-62 NSCLC,73.1 µM
same,TGI,ACHN renal,79.6 µM
C1C[OH+]CC[OH+]CCNCC[OH+]CC[OH+]CCN1.N.[Cl-].[Pt+4],GI50,OVCAR-8 ovarian,17 µM
same,TGI,OVCAR-8 ovarian,> 100 µM
same,GI50,UO-31 renal,12.2 µM
same,TGI,UO-31 renal,32 µM
same,GI50,KM12 colon,19 µM
same,TGI,KM12 colon,48.7 µM
same,GI50,CCRF-CEM leukemia,0.62 µM
same,TGI,CCRF-CEM leukemia,> 100 µM
same,GI50,SK-MEL-2 melanoma,19.9 µM
same,TGI,SK-MEL-2 melanoma,53 µM
same,GI50,HOP-62 NSCLC,6.11 µM
same,TGI,HOP-62 NSCLC,66.3 µM
same,GI50,ACHN renal,4.33 µM
same,TGI,ACHN renal,44 µM
Cc1ccc(NC(=O)C(=O)C(C#N)c2ccccc2C)cc1C (centres undefined),TGI,OVCAR-8 ovarian,> 100 µM
same,TGI,UO-31 renal,> 100 µM
same,TGI,KM12 colon,> 100 µM
same,TGI,CCRF-CEM leukemia,> 100 µM
same,TGI,SK-MEL-2 melanoma,> 100 µM
same,TGI,HOP-62 NSCLC,> 100 µM
same,TGI,ACHN renal,> 100 µM
C[C@@H]1C[C@H]2CC[C@H](O2)[C@H](C)C(=O)O[C@@H](C)C[C@@H]2CC[C@@H](O2)[C@@H](C)C(=O)O[C@H](C)C[C@H]2CC[C@H](O2)[C@H](C)C(=O)O[C@@H](C)C[C@@H]2CC[C@@H](O2)[C@@H](C)C(=O)O1,TGI,MCF7 breast,> 100 µM
same,TGI,OVCAR-8 ovarian,> 44.6 µM
same,TGI,CCRF-CEM leukemia,16.2 µM
same,TGI,SK-MEL-2 melanoma,3.34 µM
same,TGI,DU-145 prostate,> 100 µM
same,TGI,HOP-62 NSCLC,4.78 µM
same,TGI,ACHN renal,2.45 µM
CSc1ccc(C2OC(=O)c3ccccc32)c2ccccc12 (centres undefined),TGI,OVCAR-8 ovarian,> 100 µM
same,TGI,UO-31 renal,> 100 µM
same,TGI,KM12 colon,> 100 µM
same,TGI,CCRF-CEM leukemia,> 100 µM
same,TGI,SK-MEL-2 melanoma,> 100 µM
same,TGI,HOP-62 NSCLC,> 100 µM
same,TGI,ACHN renal,> 100 µM
CN(C)CCNc1c2c(c(NCCN(C)C)c3[nH]ccc13)C(=O)c1ccccc1C2=O,GI50,MCF7 breast,0.371 µM
same,GI50,OVCAR-8 ovarian,0.532 µM
same,TGI,OVCAR-8 ovarian,9.21 µM
same,GI50,UO-31 renal,2.28 µM
same,TGI,UO-31 renal,> 100 µM
same,GI50,KM12 colon,0.347 µM
same,TGI,KM12 colon,2.26 µM
same,GI50,CCRF-CEM leukemia,0.281 µM
same,GI50,DU-145 prostate,0.587 µM
same,TGI,DU-145 prostate,3.1 µM
same,GI50,HOP-62 NSCLC,0.894 µM
same,TGI,HOP-62 NSCLC,9.27 µM
same,GI50,ACHN renal,0.476 µM
same,TGI,ACHN renal,5.56 µM
CC1=Nc2ccccc2S/C1=C(/C)NNC(=O)C(N)=O,TGI,OVCAR-8 ovarian,> 100 µM
same,TGI,UO-31 renal,> 100 µM
same,TGI,KM12 colon,> 100 µM
same,TGI,CCRF-CEM leukemia,> 100 µM
same,TGI,SK-MEL-2 melanoma,> 100 µM
same,TGI,HOP-62 NSCLC,> 100 µM
same,TGI,ACHN renal,> 100 µM
CN(C)C(=O)OC(Cn1cncn1)c1ccc(Cl)cc1Cl (centres undefined),TGI,OVCAR-8 ovarian,> 100 µM
same,TGI,UO-31 renal,> 100 µM
same,TGI,KM12 colon,> 100 µM
same,TGI,SK-MEL-2 melanoma,> 100 µM
same,TGI,HOP-62 NSCLC,> 100 µM
same,TGI,ACHN renal,> 100 µM
C/C(=N\NS(=O)(=O)c1ccccc1)c1ccc(Cl)c(Cl)c1,TGI,OVCAR-8 ovarian,> 100 µM
same,TGI,UO-31 renal,> 100 µM
same,TGI,KM12 colon,> 100 µM
same,TGI,CCRF-CEM leukemia,> 100 µM
same,TGI,SK-MEL-2 melanoma,> 100 µM
same,TGI,HOP-62 NSCLC,> 100 µM
same,TGI,ACHN renal,> 100 µM
Cc1ccc(N=Cc2ccc3c(c2)OCO3)cc1C,TGI,OVCAR-8 ovarian,> 100 µM
same,TGI,UO-31 renal,> 100 µM
same,TGI,KM12 colon,> 100 µM
same,TGI,CCRF-CEM leukemia,> 100 µM
same,TGI,SK-MEL-2 melanoma,> 100 µM
same,TGI,ACHN renal,> 100 µM
CC1=C(Oc2ccccc2)C(CCC(=O)O)c2c(O)cc(Cl)c(O)c21 (centres undefined),TGI,OVCAR-8 ovarian,> 100 µM
same,TGI,UO-31 renal,> 100 µM
same,TGI,KM12 colon,> 100 µM
same,TGI,CCRF-CEM leukemia,> 100 µM
same,TGI,SK-MEL-2 melanoma,> 100 µM
same,TGI,HOP-62 NSCLC,> 100 µM
OC(c1cc(-c2ccccc2)nc2ccc(Cl)cc12)C1CCCCN1 (centres undefined),GI50,MCF7 breast,1.67 µM
same,TGI,MCF7 breast,3.14 µM
same,GI50,OVCAR-8 ovarian,2.55 µM
same,TGI,OVCAR-8 ovarian,6.38 µM
same,GI50,UO-31 renal,1.73 µM
same,TGI,UO-31 renal,4.19 µM
same,GI50,KM12 colon,1.94 µM
same,TGI,KM12 colon,3.74 µM
same,GI50,CCRF-CEM leukemia,2.59 µM
same,TGI,CCRF-CEM leukemia,7.69 µM
same,GI50,SK-MEL-2 melanoma,2.45 µM
same,TGI,SK-MEL-2 melanoma,5.02 µM
same,GI50,DU-145 prostate,3.07 µM
same,TGI,DU-145 prostate,8.74 µM
same,GI50,MDA-MB-231 breast,1.78 µM
same,TGI,MDA-MB-231 breast,3.94 µM
same,GI50,ACHN renal,1.64 µM
same,TGI,ACHN renal,3.21 µM
O=C(N/C(=C\c1ccc2c(c1)OCO2)c1nc2ccccc2[nH]1)c1ccccc1,TGI,OVCAR-8 ovarian,> 100 µM
same,TGI,UO-31 renal,99.8 µM
same,TGI,KM12 colon,> 100 µM
same,TGI,CCRF-CEM leukemia,> 89.2 µM
same,TGI,SK-MEL-2 melanoma,55.9 µM
same,TGI,HOP-62 NSCLC,> 73.4 µM
same,TGI,ACHN renal,> 100 µM
COc1ccc(-c2csc(N(C(=O)N3CCN(c4cc5c(cc4F)c(=O)c(C(=O)O)cn5C4CC4)CC3)c3ccccc3)n2)cc1,GI50,MCF7 breast,3.09 µM
same,TGI,MCF7 breast,> 100 µM
same,GI50,OVCAR-8 ovarian,2.82 µM
same,TGI,OVCAR-8 ovarian,> 100 µM
same,GI50,KM12 colon,3.41 µM
same,TGI,KM12 colon,> 100 µM
same,GI50,CCRF-CEM leukemia,3.06 µM
same,TGI,CCRF-CEM leukemia,> 100 µM
same,GI50,SK-MEL-2 melanoma,2.2 µM
same,TGI,SK-MEL-2 melanoma,5.22 µM
same,GI50,DU-145 prostate,1.49 µM
same,TGI,DU-145 prostate,> 100 µM
same,GI50,MDA-MB-231 breast,2.44 µM
same,TGI,MDA-MB-231 breast,8.13 µM
same,GI50,HOP-62 NSCLC,1.12 µM
same,TGI,HOP-62 NSCLC,> 79 µM
same,GI50,ACHN renal,1.85 µM
same,TGI,ACHN renal,5.09 µM
COc1ccc(-c2ccc(/C=N/n3c(COc4ccc(Cl)cc4Cl)nn(CN4CCOCC4)c3=S)o2)c([N+](=O)[O-])c1,GI50,MCF7 breast,20.7 µM
same,TGI,MCF7 breast,77.3 µM
same,GI50,UO-31 renal,42.7 µM
same,TGI,UO-31 renal,> 100 µM
same,GI50,KM12 colon,16.7 µM
same,TGI,KM12 colon,32.6 µM
same,GI50,CCRF-CEM leukemia,16.2 µM
same,TGI,CCRF-CEM leukemia,43.8 µM
same,GI50,DU-145 prostate,> 100 µM
same,TGI,DU-145 prostate,> 100 µM
same,GI50,HOP-62 NSCLC,35.9 µM
same,TGI,HOP-62 NSCLC,> 100 µM
same,GI50,ACHN renal,36.1 µM
same,TGI,ACHN renal,> 100 µM
COc1ccc(OC)c(NC(=O)C2=C(C)NC(C)=C(C(=O)Nc3cc(OC)ccc3OC)C2c2ccccc2)c1,TGI,OVCAR-8 ovarian,> 100 µM
same,TGI,UO-31 renal,> 100 µM
same,TGI,KM12 colon,> 100 µM
same,TGI,CCRF-CEM leukemia,> 100 µM
same,TGI,SK-MEL-2 melanoma,> 100 µM
same,TGI,HOP-62 NSCLC,> 100 µM
same,TGI,ACHN renal,> 100 µM
CCCCCCCCN=C(N)c1ccc(N2CCN(c3ccc(C(N)=NCCCCCCCC)cc3)CC2)cc1,GI50,OVCAR-8 ovarian,1.49 µM
same,TGI,OVCAR-8 ovarian,6.65 µM
same,GI50,UO-31 renal,4.22 µM
same,TGI,UO-31 renal,> 50 µM
same,GI50,KM12 colon,1.9 µM
same,TGI,KM12 colon,8.81 µM
same,GI50,SK-MEL-2 melanoma,1.69 µM
same,TGI,SK-MEL-2 melanoma,> 50 µM
same,GI50,DU-145 prostate,2.42 µM
same,TGI,DU-145 prostate,18 µM
same,GI50,MDA-MB-231 breast,3.37 µM
same,TGI,MDA-MB-231 breast,> 50 µM
same,GI50,HOP-62 NSCLC,7.14 µM
same,TGI,HOP-62 NSCLC,15 µM
same,GI50,ACHN renal,2.37 µM
same,TGI,ACHN renal,12.7 µM
CC1(C)C(=NNC(=O)C[N+](C)(C)C)C(C)(C)C1=NNC(=O)C[N+](C)(C)C,TGI,OVCAR-8 ovarian,> 100 µM
same,TGI,UO-31 renal,> 100 µM
same,TGI,KM12 colon,> 100 µM
same,TGI,CCRF-CEM leukemia,> 100 µM
same,TGI,SK-MEL-2 melanoma,> 100 µM
same,TGI,HOP-62 NSCLC,> 100 µM
same,TGI,ACHN renal,> 100 µM
O=[N+]([O-])C1C2C=CC(C2)[C@H]1c1ccco1 (some centres undefined),TGI,OVCAR-8 ovarian,> 100 µM
same,TGI,UO-31 renal,> 100 µM
same,TGI,KM12 colon,> 100 µM
same,TGI,CCRF-CEM leukemia,> 100 µM
same,TGI,SK-MEL-2 melanoma,> 100 µM
same,TGI,HOP-62 NSCLC,> 100 µM
same,TGI,ACHN renal,> 100 µM
COc1ccc(-c2n/c(=C\c3c(O)[nH]c4ccc(OC)cc34)cc3c2=Nc2ccccc2-3)cc1,GI50,UO-31 renal,18 µM
same,TGI,UO-31 renal,56.1 µM
same,GI50,KM12 colon,3.8 µM
same,TGI,KM12 colon,> 100 µM
same,GI50,MDA-MB-231 breast,1.73 µM
same,TGI,MDA-MB-231 breast,4.27 µM
same,GI50,HOP-62 NSCLC,2.36 µM
same,TGI,HOP-62 NSCLC,4.91 µM
same,GI50,ACHN renal,26.7 µM
same,TGI,ACHN renal,> 100 µM
CC1C=C(OC(=O)c2ccccc2)C(=O)C(n2cc(F)c(=O)[nH]c2=O)O1 (centres undefined),TGI,OVCAR-8 ovarian,> 100 µM
same,TGI,UO-31 renal,> 100 µM
same,TGI,KM12 colon,> 100 µM
same,TGI,CCRF-CEM leukemia,> 100 µM
same,TGI,SK-MEL-2 melanoma,> 100 µM
same,TGI,HOP-62 NSCLC,> 100 µM
same,TGI,ACHN renal,> 100 µM
